Test results as given in BindingDB's records for patent US8507533 (Pfizer, 2013).
Several values for one entry are separate records, joined by “and”; a condition that tells them apart may be missing. Equal values may be shown once.

Biological target: Glucagon receptor (Homo sapiens, UniProt P47871)
Assay: Glucagon SPA Assay
Settings: pH 7.4
Excerpt: The Glucagon SPA assay is used to determine the ability of test compounds to block the binding of glucagon-cex to the glucagon receptors.

Sequence of Glucagon receptor (P47871 whole entry): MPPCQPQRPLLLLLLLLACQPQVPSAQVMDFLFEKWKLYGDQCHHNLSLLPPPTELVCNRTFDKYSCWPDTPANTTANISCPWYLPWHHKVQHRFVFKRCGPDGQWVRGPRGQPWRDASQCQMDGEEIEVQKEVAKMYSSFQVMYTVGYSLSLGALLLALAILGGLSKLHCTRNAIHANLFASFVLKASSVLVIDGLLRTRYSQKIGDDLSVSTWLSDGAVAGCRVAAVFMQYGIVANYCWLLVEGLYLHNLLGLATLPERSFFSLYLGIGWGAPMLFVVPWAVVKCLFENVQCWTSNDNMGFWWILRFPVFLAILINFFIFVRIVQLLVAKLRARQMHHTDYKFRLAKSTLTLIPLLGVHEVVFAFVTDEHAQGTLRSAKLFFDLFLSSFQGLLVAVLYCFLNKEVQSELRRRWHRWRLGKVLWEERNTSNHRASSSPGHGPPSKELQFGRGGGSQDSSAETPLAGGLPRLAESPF

SMILES	Ki
Cc1cc(-n2cc(C(F)(F)F)cn2)ccc1C(Nc1ccc(C(=O)NCCC(=O)O)cn1)C1CCCCC1 (single isomer, unassigned) [US8507533, 337]	183 nM and 297 nM
CCCC(Oc1ccc(-n2cc(-c3ccccc3)cn2)nc1)c1ccc(C(=O)NCCC(=O)O)cc1 (configuration not stated) [US8507533, 133]	58 nM
